These results are taken from publication PMC3815946 (Microbial biotechnology, 2009).

The subject of assay [1] is 3A6. Put plainly: steady-state hydrolysis kinetics, Hanes-Woolf plot. The assay is classed as biochemical. The conditions noted are these: read-out: 3A6 / Km; 100 mM Tris-sulfate, pH 8.5, 40 °C, enzyme 0-12 nM.
Assay [2] deals with 3A6. Put plainly: steady-state hydrolysis kinetics, Hanes-Woolf plot. The assay is classed as biochemical. The conditions noted are these: read-out: 3A6I / Km; 100 mM Tris-sulfate, pH 8.5, 40 °C, enzyme 0-12 nM.

Like-named read-outs stand apart in the source and are kept apart here.

Take `COc1cc(/C=C/C(=O)OC[C@@H]2O[C@@H](O[C@@H]3[C@@H](O)[C@H](O[C@@H]4COC(O)[C@H](O)[C@H]4O)OC[C@H]3O)[C@H](O)[C@H]2O)ccc1O` (stereo partly drawn) [FAXX, (5‐O‐(trans‐feruloyl)‐α‐L‐arabinofuranosyl)‐(1,3)‐β‐D‐xylopyranosyl‐(1,4)‐D‐xylopyranose]: the Km in the assay with 3A6 [1] worked out at 1960 ± 370 µM.
Consider `COc1cc(/C=C/C(=O)OC[C@@H]2O[C@@H](Oc3ccc([N+](=O)[O-])cc3)[C@H](O)[C@H]2O)ccc1O` [Nph-5-Fe-Araf, p‐nitrophenyl 5‐O‐trans‐feruloyl‐α‐L‐arabinofuranoside], for which the Km in the assay on 3A6 [1] worked out at 970 ± 30 µM.
Consider `COC(=O)/C=C/c1ccc(O)c(OC)c1` [Methyl ferulate], for which the Km with 3A6 [1] stood at 2340 ± 370 µM.
`CCC(=O)Oc1ccc([N+](=O)[O-])cc1` [p-Nitrophenyl propionate]: the Km in the assay on 3A6 [1] was 150 ± 90 µM.
For `COC(=O)/C=C/c1cc(OC)c(O)c(OC)c1` [Methyl sinapinate], the Km in the assay on 3A6 [1] was 400 ± 80 µM.
Regarding `CCCCCC(=O)Oc1ccc([N+](=O)[O-])cc1` [p-Nitrophenyl hexanoate], in the assay with 3A6 [1], the Km came to 1530 ± 90 µM.
Consider `COC(=O)/C=C/c1ccc(O)cc1` [Methyl p-coumarate], for which the Km in the assay on 3A6 [1] turned out to be 1550 ± 110 µM.
Take `CCCC(=O)Oc1ccc([N+](=O)[O-])cc1` [p-Nitrophenyl butyrate]: the values for the Km in the assay with 3A6 [2] and with 3A6 [1] were 890 ± 70 µM and 240 ± 20 µM, respectively.
On to `CC(=O)Oc1ccc([N+](=O)[O-])cc1` [p-Nitrophenyl acetate], for which the Km in the assay on 3A6 [2] stood at 3480 ± 210 µM; in the assay on 3A6 [1] it was 180 ± 90 µM.
